Test results as given in ChEMBL document CHEMBL1212937, “Effect of synthetic peptides belonging to E2 envelope protein of GB virus C on human immunodeficiency virus type 1 infection” (J Med Chem, 2010).
Peptide text beside a SMILES is read from it.

Tests used:
[1] = (§1) Inhibition of HIV1 gp41-induced cell-cell fusion between viral envolop expressing human HeLa cells to CD4 receptor expressing TZM-bl cells; format: cell-based, Human immunodeficiency virus 1
[2] = test system: HeLa; test: as §1; format: cell-based; conditions: Human immunodeficiency virus 1
[3] = test system: Human immunodeficiency virus 1; test: Antiviral activity against R5 tropic HIV1 HXB2 infected in human TZM-bl cells assessed as inhibition of virus-induced cytopathic effect; format: functional, organism-based; conditions: for IC50: Human immunodeficiency virus 1, HXB2, TZM-bl
[4] = test system: Human immunodeficiency virus 1; test: Antiviral activity against R5X4 tropic HIV1 69/7 infected in human TZM-bl cells assessed as inhibition of virus-induced cytopathic effect; format: functional, organism-based; conditions: for IC50: Human immunodeficiency virus 1, 69/7, TZM-bl
[5] = test system: Human immunodeficiency virus 1; test: Antiviral activity against R5 tropic HIV1 BAL infected in human TZM-bl cells assessed as inhibition of virus-induced cytopathic effect; format: functional, organism-based; conditions: for IC50: Human immunodeficiency virus 1, BAL
[6] = test system: Human immunodeficiency virus 1; test: Antiviral activity against R5 tropic HIV1 HXB2 infected in human PBMC cells assessed as concentration at which p24 antigen produced after 7 days by ELISA; format: functional
[7] = test system: Human immunodeficiency virus 1; test: Antiviral activity against R5 tropic HIV1 BAL infected in human PBMC cells assessed as concentration at which p24 antigen produced after 7 days by ELISA; format: functional
[8] = test system: Human immunodeficiency virus 1; test: Inhibition of HIV1 gp41 fusion peptide at compound to fusion peptide ratio of 5 by fluorimetry
[9] = Inhibition of HIV1 gp41 fusion by isothermal titration; parameters: species or system Human immunodeficiency virus 1
[10] = Inhibition of HIV1 gp41 fusion by surface plasmon resonance; parameters: species or system Human immunodeficiency virus 1

| Compound | IC50 [1] [µM] | inhibition [2] | inhibition [3] | inhibition [4] | inhibition [5] | IC50 [5] [µM] | Activity [6] [µM] | Activity [7] [µM] | IC50 [3] [µM] | IC50 [4] [µM] | inhibition [8] [%] | Kd [9] [µM] | Kd [10] [µM] | IC50 [2] [µM] |
| --- | --- | --- | --- | --- | --- | --- | --- | --- | --- | --- | --- | --- | --- | --- |
| H-WVNQLAVLGLPAVDAAVA-OH | 333 | Dose-dependent effect | Dose-dependent effect | Dose-dependent effect | Dose-dependent effect | 94.7 | 7.8 | 15.6 |  |  |  |  |  |  |
| H-SWFASTGGRDSKIDVWSL-OH |  |  | Dose-dependent effect | Dose-dependent effect | Dose-dependent effect | 411 | 62.5 | 7.8 | 237 | 119 |  |  |  |  |
| CC[C@H](C)[C@H](NC(=O)[C@H](C)NC(=O)[C@H](CCC(N)=O)NC(=O)[C@@H](CS)NC(=O)[C@H](Cc1ccccc1)NC(=O)[C@H](C)NC(=O)[C@@H]1CCCN1C(=O)[C@@H](N)CC(C)C)C(=O)NCC(=O)N[C@@H](Cc1c[nH]c2ccccc12)C(=O)NCC(=O)N[C@@H](CC(=O)O)C(=O)N1CCC[C@H]1C(=O)N[C@H](C(=O)N[C@H](C(=O)N[C@@H](Cc1cnc[nH]1)C(=O)N[C@@H](Cc1c[nH]c2ccccc12)C(=O)N[C@@H](CO)C(=O)O)[C@@H](C)O)[C@@H](C)CC | 370 | Dose-dependent effect | Dose-dependent effect | Dose-dependent effect | Dose-dependent effect | 194 | 15.6 | 15.6 | 46 | 71.4 |  |  |  |  |
| H-PITHWSHGQNRWPLSCPQ-OH | 509 | Dose-dependent effect |  |  |  |  |  |  |  |  |  |  |  |  |
| H-FCQAIGWGDPITHWSHGQ-OH | 348 | Dose-dependent effect | Dose-dependent effect | Dose-dependent effect | Dose-dependent effect | 126 | 7.8 | 15.6 | 70.1 | 111 |  |  |  |  |
| CC(C)C[C@H](NC(=O)[C@H](CC(C)C)NC(=O)[C@@H](NC(=O)[C@@H](NC(=O)[C@H](CC(N)=O)NC(=O)CNC(=O)[C@H](CCCNC(=N)N)NC(=O)[C@H](CC(=O)O)NC(=O)[C@H](Cc1c[nH]c2ccccc12)NC(=O)[C@@H](NC(=O)[C@H](CCCCN)NC(=O)[C@H](CCC(=O)O)NC(=O)CNC(=O)[C@@H](N)[C@@H](C)O)C(C)C)C(C)C)[C@@H](C)O)C(=O)N[C@@H](CS)C(=O)N[C@@H](CC(=O)O)C(=O)N[C@@H](CS)C(=O)N1CCC[C@H]1C(=O)O (H-TGEKVWDRGNVTLLCDCP-OH) | 440 | Dose-dependent effect | Dose-dependent effect | Dose-dependent effect | Dose-dependent effect | 484 | 31.2 | 62.5 | 162 | 209 | 52.9 | 33.3 | 25.2 |  |
| H-LQEVDAGNFIPPPRWLLL-OH | 687 | Dose-dependent effect | Dose-dependent effect | Dose-dependent effect | Dose-dependent effect | 295 | 7.8 | 15.6 | 37.5 | 60.8 |  |  |  |  |
| CC[C@H](C)[C@H](NC(=O)[C@H](CS)NC(=O)[C@@H](NC(=O)[C@H](C)NC(=O)[C@H](CS)NC(=O)[C@@H]1CCCN1C(=O)[C@@H](NC(=O)CNC(=O)[C@H](Cc1c[nH]c2ccccc12)NC(=O)[C@H](CCC(=O)O)NC(=O)[C@H](CO)NC(=O)[C@H](CC(C)C)NC(=O)[C@H](CCC(=O)O)NC(=O)[C@@H](NC(=O)[C@@H](NC(=O)[C@@H](NC(=O)[C@@H](N)CC(=O)O)[C@@H](C)O)C(C)C)C(C)C)C(C)C)[C@@H](C)O)C(=O)N[C@@H](CC(C)C)C(=O)O (H-DTVVELSEWGVPCATCIL-OH) | 429 | Dose-dependent effect | Dose-dependent effect | Dose-dependent effect | Dose-dependent effect | 463 | 7.8 | 31.2 | 39.9 | 24.1 |  |  |  |  |
| CC[C@H](C)[C@H](NC(=O)[C@H](CS)NC(=O)[C@@H](NC(=O)[C@H](C)NC(=O)[C@H](CS)NC(=O)[C@@H]1CCCN1C(=O)[C@@H](NC(=O)CNC(=O)[C@H](Cc1c[nH]c2ccccc12)NC(=O)[C@H](CCC(=O)O)NC(=O)[C@H](CO)NC(=O)[C@H](CC(C)C)NC(=O)[C@H](CCC(=O)O)NC(=O)[C@@H](N)C(C)C)C(C)C)[C@@H](C)O)C(=O)N[C@@H](CC(C)C)C(=O)N[C@@H](CC(=O)O)C(=O)N[C@@H](CCCNC(=N)N)C(=O)N[C@@H](CCCNC(=N)N)C(=O)O (H-VELSEWGVPCATCILDRR-OH) | 331 | Dose-dependent effect | Dose-dependent effect | Dose-dependent effect | Dose-dependent effect | 140 | 7.8 | 7.8 | 58.6 | 20.1 |  |  |  |  |
| H-HGQNRWPLSCPQYVYGSV-OH |  | Dose-dependent effect |  |  |  |  |  |  |  |  |  |  |  | 304 |
| C[C@@H]1[C@H](O)[C@@H](C)/C=C/C=C/C=C/C=C/C=C/C=C/C=C/[C@H](O[C@@H]2O[C@H](C)[C@@H](O)[C@H](N)[C@@H]2O)C[C@@H]2O[C@](O)(C[C@@H](O)C[C@@H](O)[C@H](O)CC[C@@H](O)C[C@@H](O)CC(=O)O[C@H]1C)C[C@H](O)[C@H]2C(=O)O [AMPHOTERICIN B] |  |  |  |  |  | 0.136 |  |  | 0.175 |  |  |  |  |  |
| H-SDRDTVVELSEWGVPCAT-OH | 141 | Dose-dependent effect | Dose-dependent effect | Dose-dependent effect | Dose-dependent effect | 506 | 31.2 | 62.5 | 48.8 | 43.7 | 59 | 63.6 | 58.6 |  |
| H-LVRRRSELMGRRNPVCPG-OH | 538 | Dose-dependent effect |  |  |  |  |  |  |  |  | 46 | 39.6 | 22.4 |  |
| CC(C)C[C@H](NC(=O)[C@H](CC(=O)O)NC(=O)[C@H](CCCCN)NC(=O)[C@@H](NC(=O)[C@H](CC(C)C)NC(=O)[C@H](CCCCN)NC(=O)[C@@H]1CCCN1C(=O)CNC(=O)[C@H](C)NC(=O)CNC(=O)[C@H](CS)NC(=O)[C@H](CCCNC(=N)N)NC(=O)[C@H](Cc1cnc[nH]1)NC(=O)[C@H](Cc1ccccc1)NC(=O)[C@@H]1CCCN1C(=O)[C@H](Cc1ccccc1)NC(=O)[C@@H](N)CCCNC(=N)N)[C@H](C)O)C(=O)N[C@@H](CCC(=O)O)C(=O)O | 530 | Dose-dependent effect |  |  |  |  |  |  |  |  | 56.3 |  |  |  |
| H-GRPDGFIHVQGHLQEVDA-OH |  |  |  |  |  |  |  |  |  |  | 17.9 | 20 | 17.6 |  |
